Assay results from patent US12116358B2, “Substituted indoles and methods of use thereof” (EPIZYME, INC., priority 2018, dated 2024).
Where two headings read alike, the source gives them in different places.

Tests used:
H3K36me3 in A549 cells = test: In-Cell Western (ICW) assay of SETD2 inhibitors (A549 assay); assay type: cell-based, human
Method: In-Cell Western (ICW) Assay of SETD2 Inhibitors (A549 Assay)
Representative Compounds of the Disclosure were tested in the A549 assay according the following protocol.
1. Reagents and Consumables:
Prepare plates with compounds. Seed A549 cells to the plates with compounds, 4,000 cells/well, 50 μl/well. Put the plates at room temperature on a non-vibrating surface for 20 minutes before placing in the incubator. Incubate the plate at 37° C. incubator with CO2 for 3 days. Remove plate from incubator and bring to room temperature. Blot media out of the plate and add 50 μL of ice cold 100% methanol. Incubate 30 minutes at room temperature. Remove methanol by aspiration. Wash 3× with PBST. Add 50 μL of Blocking Buffer+0.1% Tween 20. Incubate 1 hour. Remove Blocking Buffer, wash 3× with PBST. Add 20 μL of H3K36me3 (1:1000 dilution). […] Incubate overnight at 4° C. Wash plate 5× with PBS-T. Add 20 μL of DRAQ5 (1:1000) and IRDye 800CW Goat anti-Rabbit IgG (1:500). Incubate for 1 hour in the dark. Wash plate 5× with PBS-T. Wash plate 3× with water. Dry by blotting on paper towel, then centrifuge plate upside down on a thin layer of paper towels for 1 minute at 1000 rpm to remove excess reagent. Leave plate uncovered for ˜10 minutes out of direct light before reading. Read on Licor instrument.
4. Licor Instrument Settings:
Preset: Plate; Resolution: 84 μm; Quality: low; Focus offset: 4.0; 700 channel intensity: 2; and 800 channel intensity: 3.

SETD2(1434-1711) = molecular target: T1, SETD2(1434-1711) (Homo sapiens, UniProt Q9BYW2); test: SETD2 (1434-1711) assay; assay type: biochemical; settings: read-out: SETD2 (1434-1711)
T1 construct: SETD2 (1434-1711) Assay; catalogue N/A
T1 sequence (Q9BYW2 1434-1711): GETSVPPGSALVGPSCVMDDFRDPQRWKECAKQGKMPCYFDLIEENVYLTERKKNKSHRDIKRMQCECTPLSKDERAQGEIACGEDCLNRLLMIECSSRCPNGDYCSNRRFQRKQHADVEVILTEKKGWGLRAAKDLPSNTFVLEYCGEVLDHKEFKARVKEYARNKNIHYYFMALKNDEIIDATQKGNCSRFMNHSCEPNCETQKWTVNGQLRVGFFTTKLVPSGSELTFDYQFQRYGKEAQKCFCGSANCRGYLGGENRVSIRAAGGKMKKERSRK

[1] = A549 cells, read-out: SETD2 A549
[2] = Homo sapiens, A549, read-out: SETD2 A549

Row | Compound | IC50 (H3K36me3 in A549 cells; [1]) | other results
1 | Cc1nccnc1C(NC(=O)c1cc2cccc(C)c2[nH]1)C1CC1 (stereo not shown) [compound 518] | – | IC50 (H3K36me3 in A549 cells; Homo sapiens, A549 cells, read-out: SETD2 A549): 18900 nM
2 | Cc1ccc(F)c2cc(C(=O)N[C@@H]3CCC[C@@H](N4CCN5C(=O)CCC5C4)C3)[nH]c12 (stereo partly shown) [compound 864] | 1200 nM | –
3 | Cc1ccc(F)c2cc(C(=O)N[C@@H]3CCC[C@@H](c4ccncc4)C3)[nH]c12 [compound 912] | – | IC50 (H3K36me3 in A549 cells; [2]): > 2000 nM
4 | Cc1cccnc1C(NC(=O)c1cc2c(F)ccc(C)c2[nH]1)C1CC1 (stereo not shown) [compound 462] | – | IC50 (H3K36me3 in A549 cells; [2]): 6300 nM
5 | Cc1cccnc1[C@@H](NC(=O)c1cc2cccc(C)c2[nH]1)C1CC1 [compound 613] | > 25000 nM | –
6 | Cc1ccc(F)c2cc(C(=O)NC3CCCC(N4CCN5C(=O)CCC5C4)C3)[nH]c12 (stereo not shown) [compound 920] | 100 nM | –
7 | Cc1ccc(F)c2cc(C(=O)Nc3ncc(C4CCN(C)CC4)n3C)[nH]c12 [compound 1159] | > 25000 nM | –
8 | CC(=O)N1CCC2C1CCN2C1CCCC(NC(=O)c2cc3c(F)ccc(C)c3[nH]2)C1 (stereo not shown) [compound 1184] | 5 nM | –
9 | CC(=O)N(C)[C@H]1CCN([C@@H]2CCC[C@@H](NC(=O)c3cc4c(F)ccc(C)c4[nH]3)C2)C1 [compound 842] | – | IC50 (H3K36me3 in A549 cells; [2]): > 2000 nM
10 | Cc1ccc(F)c2cc(C(=O)N[C@@H]3CCC[C@H](N4CCN(C)C(=O)C4)C3)[nH]c12 [compound 169] | – | IC50 (H3K36me3 in A549 cells; [2]): 300 nM
11 | Cc1ccc(F)c2cc(C(=O)N[C@@H]3CCC[C@@H](N4CCN5C(=O)CC[C@@H]5C4)C3)[nH]c12 [compound 921] | 1000 nM | –
12 | CC(=O)N1CCC2C1CCN2C1CCCC(NC(=O)c2cc3c(F)ccc(C)c3[nH]2)C1 (stereo not shown) [compound 1186] | > 2000 nM | –
13 | Cc1ccc(F)c2cc(C(=O)NC3CCCC(N4CCN(C)C(=O)C4)C3)[nH]c12 (stereo not shown) [compound 382] | > 2000 nM | –
14 | CC(=O)N(C)[C@@H]1CCN([C@@H]2CCC[C@@H](NC(=O)c3cc4c(F)ccc(C)c4[nH]3)C2)C1 [compound 849] | > 2000 nM | –
15 | Cc1ccc(F)c2cc(C(=O)N[C@H]3CCC[C@H](c4ccncc4)C3)[nH]c12 [compound 915] | – | IC50 (H3K36me3 in A549 cells; [2]): > 2000 nM
16 | Cc1ccc(F)c2cc(C(=O)N[C@@H]3CCC[C@@H](N4CCN(S(C)(=O)=O)CC4)C3)[nH]c12 [compound 851] | > 2000 nM | –

Row | Compound | IC50 (H3K36me3 in A549 cells; [1]) | other results
17 | Cc1ccc(F)c2cc(C(=O)N[C@H]3CCC[C@@H](c4ccncc4)C3)[nH]c12 [compound 914] | – | IC50 (H3K36me3 in A549 cells; [2]): 300 nM
18 | CC(=O)N1CCC2C1CCN2C1CCCC(NC(=O)c2cc3c(F)ccc(C)c3[nH]2)C1 (stereo not shown) [compound 1187] | > 2000 nM | –
19 | Cc1ccc(F)c2cc(C(=O)NC3CCCC(N4CCN5C(=O)CCC5C4)C3)[nH]c12 (stereo not shown) [compound 922] | 10 nM | –
20 | Cc1cccnc1[C@H](NC(=O)c1cc2cccc(C)c2[nH]1)C1CC1 [compound 463] | – | IC50 (H3K36me3 in A549 cells; [2]): 6400 nM
21 | CC(=O)N(C)[C@H]1CCN([C@H]2CCC[C@@H](NC(=O)c3cc4c(F)ccc(C)c4[nH]3)C2)C1 [compound 841] | – | IC50 (H3K36me3 in A549 cells; [2]): 100 nM
22 | Cc1cccnc1C(NC(=O)c1cc2nccc(C)c2[nH]1)C1CC1 (stereo not shown) [compound 599] | > 25000 nM | –
23 | Cc1ccc(F)c2cc(C(=O)NC3CCCC(N4CCOCC4)C3)[nH]c12 (stereo not shown) [compound 381] | > 2000 nM | –
24 | Cc1cccc2cc(C(=O)NCc3ccccc3N3CCCC3)[nH]c12 [compound 528] | 24600 nM | –
25 | Cc1cccnc1C(NC(=O)c1cc2cccc(C)c2[nH]1)C1CC1 (stereo not shown) [compound 475] | – | IC50 (H3K36me3 in A549 cells; [2]): 8900 nM
26 | CC(=O)N1CCC2CN(C3CCCC(NC(=O)c4cc5c(F)ccc(C)c5[nH]4)C3)CC21 (stereo not shown) [compound 1181] | > 2000 nM | –
27 | Cc1cccc2cc(C(=O)Nc3cc(CN4CCOCC4)ccn3)[nH]c12 [compound 724] | – | IC50 (SETD2(1434-1711)): 117000 nM
28 | Cc1cccc2cc(C(=O)NC3(c4cccnc4)CC3)[nH]c12 [compound 643] | – | IC50 (SETD2(1434-1711)): 18600 nM
29 | Cc1cccc2cc(C(=O)NC(C)c3cccc4ccccc34)[nH]c12 (stereo not shown) [compound 714] | – | IC50 (SETD2(1434-1711)): 98900 nM
30 | Cc1cccc2cc(C(=O)Nc3cncnc3)[nH]c12 [compound 665] | – | IC50 (SETD2(1434-1711)): 32700 nM
31 | Cc1oncc1CNC(=O)c1cc2cccc(C)c2[nH]1 [compound 702] | – | IC50 (SETD2(1434-1711)): 69600 nM
